Source: PMC8364686, “Safety, tolerability, pharmacokinetics and pharmacodynamics of single oral doses of BI 187004, an inhibitor of 11beta-hydroxysteroid dehydrogenase-1, in healthy male volunteers with overweight or obesity” (Clinical Diabetes and Endocrinology, 2021)

Test: Plasma pharmacokinetics of BI 187004 after single oral doses (LC–MS/MS)
Conditions: male, human, plasma, po; for concentration at 10 h: planned time 10 h; for concentration at 12 h: planned time 12 h; for concentration at 36 h: planned time 36 h; for concentration at 48 h: planned time 48 h; for concentration at 72 h: planned time 72 h; for concentration at 96 h: planned time 96 h; for concentration at 0.5 h: planned time 0.5 h; for concentration at 1 h: planned time 1 h; for concentration at 1.5 h: planned time 1.5 h; for concentration at 2 h: planned time 2 h; for concentration at 2.5 h: planned time 2.5 h; for concentration at 3 h: planned time 3 h; for concentration at 4 h: planned time 4 h; for concentration at 5 h: planned time 5 h; for concentration at 6 h: planned time 6 h; for concentration at 8 h: planned time 8 h
[1] = 40 mg, BI 187004 plasma concentrations, 40 mg single oral, Max
[2] = 40 mg, BI 187004 plasma concentrations, 40 mg single oral, Mean
[3] = 40 mg, BI 187004 plasma concentrations, 40 mg single oral, Median
[4] = 40 mg, BI 187004 plasma concentrations, 40 mg single oral, Min
[5] = 40 mg, BI 187004 plasma concentrations, 40 mg single oral, gMean
[6] = 80 mg, BI 187004 plasma concentrations, 80 mg single oral, Max
[7] = 80 mg, BI 187004 plasma concentrations, 80 mg single oral, Mean
[8] = 80 mg, BI 187004 plasma concentrations, 80 mg single oral, Median
[9] = 80 mg, BI 187004 plasma concentrations, 80 mg single oral, Min
[10] = 80 mg, BI 187004 plasma concentrations, 80 mg single oral, gMean
[11] = 160 mg, BI 187004 plasma concentrations, 160 mg single oral, Max
[12] = 160 mg, BI 187004 plasma concentrations, 160 mg single oral, Mean
[13] = 160 mg, BI 187004 plasma concentrations, 160 mg single oral, Median
[14] = 160 mg, BI 187004 plasma concentrations, 160 mg single oral, Min
[15] = 160 mg, BI 187004 plasma concentrations, 160 mg single oral, gMean
[16] = 160 mg, BI 187004 plasma concentrations, 160 mg single oral, individual subjects

## N#Cc1ccc2c(c1)[C@H]1CCCN(C(=O)c3ccc4[nH]cnc4c3)[C@H]1C2 [BI 187004]
[1]
  concentration at 10 h: 1140 nM
  concentration at 12 h: 984 nM
  concentration at 36 h: 377 nM
  concentration at 48 h: 234 nM
  concentration at 72 h: 83.4 nM
  concentration at 96 h: 41.4 nM
[2]
  concentration at 10 h: 825 nM
  concentration at 12 h: 683 nM
  concentration at 36 h: 163 nM
  concentration at 48 h: 95.6 nM
  concentration at 72 h: 32 nM
  concentration at 96 h: 15.5 nM
[3]
  concentration at 10 h: 815 nM
  concentration at 12 h: 690 nM
  concentration at 36 h: 119 nM
  concentration at 48 h: 66.2 nM
  concentration at 72 h: 22.1 nM
  concentration at 96 h: 11.1 nM
[4]
  concentration at 10 h: 467 nM
  concentration at 12 h: 359 nM
  concentration at 36 h: 51.5 nM
  concentration at 48 h: 30.8 nM
  concentration at 72 h: 8.48 nM
  concentration at 96 h: 5.05 nM
[5]
  concentration at 10 h: 796 nM
  concentration at 12 h: 650 nM
  concentration at 36 h: 129 nM
  concentration at 48 h: 73 nM
  concentration at 72 h: 24.3 nM
  concentration at 96 h: 12.2 nM
40 mg, BI 187004 plasma concentrations, 40 mg single oral, planned time 24 h, Max
  concentration at 24 h: 625 nM
40 mg, BI 187004 plasma concentrations, 40 mg single oral, planned time 24 h, Mean
  concentration at 24 h: 353 nM
40 mg, BI 187004 plasma concentrations, 40 mg single oral, planned time 24 h, Median
  concentration at 24 h: 335 nM
40 mg, BI 187004 plasma concentrations, 40 mg single oral, planned time 24 h, Min
  concentration at 24 h: 169 nM
40 mg, BI 187004 plasma concentrations, 40 mg single oral, planned time 24 h, gMean
  concentration at 24 h: 321 nM
40 mg, C24 gMean (%gCV), 40 mg single oral dose
  concentration at 24 h: 321 nM
80 mg
  AUC(0-inf): 51.1 µM·h
  AUC(0-t): 43.1 µM·h
  Cmax: 2460 nM
  Tmax: 2.25 h
  Vd/F: 113 L
  half-life: 17.1 h
[6]
  concentration at 0.5 h: 4480 nM
  concentration at 1 h: 4770 nM
  concentration at 1.5 h: 4150 nM
  concentration at 2 h: 3590 nM
  concentration at 2.5 h: 3200 nM
  concentration at 3 h: 3340 nM
  concentration at 4 h: 3200 nM
  concentration at 5 h: 3210 nM
  concentration at 6 h: 2460 nM
  concentration at 8 h: 2840 nM
  concentration at 10 h: 2570 nM
  concentration at 12 h: 2210 nM
  concentration at 36 h: 678 nM
  concentration at 48 h: 596 nM
  concentration at 72 h: 234 nM
  concentration at 96 h: 110 nM
[7]
  concentration at 0.5 h: 1780 nM
  concentration at 1 h: 2490 nM
  concentration at 1.5 h: 2500 nM
  concentration at 2 h: 2330 nM
  concentration at 2.5 h: 2350 nM
  concentration at 3 h: 2240 nM
  concentration at 4 h: 2200 nM
  concentration at 5 h: 1980 nM
  concentration at 6 h: 1740 nM
  concentration at 8 h: 1820 nM
  concentration at 10 h: 1600 nM
  concentration at 12 h: 1380 nM
  concentration at 36 h: 411 nM
  concentration at 48 h: 281 nM
  concentration at 72 h: 90 nM
  concentration at 96 h: 44.9 nM
[8]
  concentration at 0.5 h: 1020 nM
  concentration at 1 h: 2300 nM
  concentration at 1.5 h: 2540 nM
  concentration at 2 h: 2400 nM
  concentration at 2.5 h: 2650 nM
  concentration at 3 h: 2470 nM
  concentration at 4 h: 2460 nM
  concentration at 5 h: 2040 nM
  concentration at 6 h: 1870 nM
  concentration at 8 h: 1690 nM
  concentration at 10 h: 1460 nM
  concentration at 12 h: 1210 nM
  concentration at 36 h: 372 nM
  concentration at 48 h: 230 nM
  concentration at 72 h: 65.1 nM
  concentration at 96 h: 23.8 nM
[9]
  concentration at 0.5 h: 304 nM
  concentration at 1 h: 771 nM
  concentration at 1.5 h: 958 nM
  concentration at 2 h: 1000 nM
  concentration at 2.5 h: 1200 nM
  concentration at 3 h: 1050 nM
  concentration at 4 h: 936 nM
  concentration at 5 h: 905 nM
  concentration at 6 h: 930 nM
  concentration at 8 h: 1100 nM
  concentration at 10 h: 1040 nM
  concentration at 12 h: 959 nM
  concentration at 36 h: 223 nM
  concentration at 48 h: 134 nM
  concentration at 72 h: 46.3 nM
  concentration at 96 h: 11.9 nM
[10]
  concentration at 0.5 h: 1150 nM
  concentration at 1 h: 2120 nM
  concentration at 1.5 h: 2220 nM
  concentration at 2 h: 2130 nM
  concentration at 2.5 h: 2200 nM
  concentration at 3 h: 2070 nM
  concentration at 4 h: 2020 nM
  concentration at 5 h: 1840 nM
  concentration at 6 h: 1650 nM
  concentration at 8 h: 1740 nM
  concentration at 10 h: 1530 nM
  concentration at 12 h: 1320 nM
  concentration at 36 h: 383 nM
  concentration at 48 h: 247 nM
  concentration at 72 h: 74.2 nM
  concentration at 96 h: 32.3 nM
80 mg, BI 187004 plasma concentrations, 80 mg single oral, planned time 24 h, Max
  concentration at 24 h: 1560 nM
80 mg, BI 187004 plasma concentrations, 80 mg single oral, planned time 24 h, Mean
  concentration at 24 h: 927 nM
80 mg, BI 187004 plasma concentrations, 80 mg single oral, planned time 24 h, Median
  concentration at 24 h: 812 nM
80 mg, BI 187004 plasma concentrations, 80 mg single oral, planned time 24 h, Min
  concentration at 24 h: 605 nM
80 mg, BI 187004 plasma concentrations, 80 mg single oral, planned time 24 h, gMean
  concentration at 24 h: 878 nM
80 mg, C24 gMean (%gCV), 80 mg single oral dose
  concentration at 24 h: 878 nM
160 mg
  AUC(0-inf): 111 µM·h
  AUC(0-t): 82.1 µM·h
  Cmax: 8310 nM
  Tmax: 1 h
  Vd/F: 87.9 L
  half-life: 14.5 h
[11]
  concentration at 0.5 h: 8780 nM
  concentration at 1 h: 8740 nM
  concentration at 1.5 h: 8830 nM
  concentration at 2 h: 8640 nM
  concentration at 2.5 h: 8030 nM
  concentration at 3 h: 7450 nM
  concentration at 4 h: 6750 nM
  concentration at 5 h: 5220 nM
  concentration at 6 h: 5320 nM
  concentration at 8 h: 4580 nM
  concentration at 10 h: 4290 nM
  concentration at 12 h: 3640 nM
[12]
  concentration at 0.5 h: 6380 nM
  concentration at 1 h: 7260 nM
  concentration at 1.5 h: 7280 nM
  concentration at 2 h: 7070 nM
  concentration at 2.5 h: 6730 nM
  concentration at 3 h: 5950 nM
  concentration at 4 h: 5800 nM
  concentration at 5 h: 4870 nM
  concentration at 6 h: 4340 nM
  concentration at 8 h: 3720 nM
  concentration at 10 h: 3090 nM
  concentration at 12 h: 2990 nM
[13]
  concentration at 0.5 h: 6830 nM
  concentration at 1 h: 7640 nM
  concentration at 1.5 h: 7380 nM
  concentration at 2 h: 6790 nM
  concentration at 2.5 h: 6550 nM
  concentration at 3 h: 5800 nM
  concentration at 4 h: 5790 nM
  concentration at 5 h: 4900 nM
  concentration at 6 h: 4230 nM
  concentration at 8 h: 3740 nM
  concentration at 10 h: 3040 nM
  concentration at 12 h: 2910 nM
[14]
  concentration at 0.5 h: 2520 nM
  concentration at 1 h: 3920 nM
  concentration at 1.5 h: 5190 nM
  concentration at 2 h: 6360 nM
  concentration at 2.5 h: 6070 nM
  concentration at 3 h: 5330 nM
  concentration at 4 h: 5060 nM
  concentration at 5 h: 4420 nM
  concentration at 6 h: 3430 nM
  concentration at 8 h: 2580 nM
  concentration at 10 h: 1940 nM
  concentration at 12 h: 2710 nM
[15]
  concentration at 0.5 h: 5860 nM
  concentration at 1 h: 7040 nM
  concentration at 1.5 h: 7190 nM
  concentration at 2 h: 7030 nM
  concentration at 2.5 h: 6700 nM
  concentration at 3 h: 5910 nM
  concentration at 4 h: 5770 nM
  concentration at 5 h: 4860 nM
  concentration at 6 h: 4290 nM
  concentration at 8 h: 3670 nM
  concentration at 10 h: 3000 nM
  concentration at 12 h: 2970 nM
[16]
  concentration at 1.5 h: 7480 nM
  concentration at 2 h: 7230 nM
  concentration at 2.5 h: 6930 nM
  concentration at 3 h: 5470 nM
  concentration at 4 h: 5230 nM
  concentration at 5 h: 4420 nM
  concentration at 6 h: 4030 nM
  concentration at 8 h: 3650 nM
  concentration at 12 h: 2710 nM
160 mg, BI 187004 plasma concentrations, 160 mg single oral, planned time 24 h, Max
  concentration at 24 h: 2690 nM
160 mg, BI 187004 plasma concentrations, 160 mg single oral, planned time 24 h, Mean
  concentration at 24 h: 1680 nM
160 mg, BI 187004 plasma concentrations, 160 mg single oral, planned time 24 h, Median
  concentration at 24 h: 1490 nM
160 mg, BI 187004 plasma concentrations, 160 mg single oral, planned time 24 h, Min
  concentration at 24 h: 1360 nM
160 mg, BI 187004 plasma concentrations, 160 mg single oral, planned time 24 h, gMean
  concentration at 24 h: 1630 nM
160 mg, BI 187004 plasma concentrations, 160 mg single oral, planned time 24 h, individual subjects
  concentration at 24 h: 1360 nM
